Measurements from a compilation of properties of binary mixtures (doi:10.1016/j.molliq.2020.113457).

Assay: xn = mol fraction of the nth substance listed
Settings: 101 kPa

CCCC[n+]1ccn(C)c1.F[B-](F)(F)F + C=CC(=O)OC
x1 = 1
Settings | speed of sound [m/s] | viscosity [mPa·s]
293.15 K | 1576.9 | 127.6
298.15 K | 1565.8 | 98.9
308.15 K | 1542.7 | 58.4
318.15 K | 1518 | 38.72

C=CC(=O)OC + CCCC[n+]1ccn(C)c1.F[B-](F)(F)F
Settings | speed of sound [m/s] | viscosity [mPa·s]
293.15 K, x2 = 0 | 1204.7 | 0.502
293.15 K, x2 = 0.0694 | 1238.9 | 0.966
293.15 K, x2 = 0.1889 | 1296 | 3.853
293.15 K, x2 = 0.239 | 1318.8 | 6.24
293.15 K, x2 = 0.3354 | 1360.5 | 12.75
293.15 K, x2 = 0.4317 | 1399.7 | 21.82
293.15 K, x2 = 0.5005 | 1426 | 29.86
293.15 K, x2 = 0.5693 | 1451 | 39.21
293.15 K, x2 = 0.6532 | 1479.7 | 52.4
293.15 K, x2 = 0.737 | 1506.4 | 67.4
293.15 K, x2 = 0.7927 | 1523 | 78.5
293.15 K, x2 = 0.8484 | 1538.7 | 90.5
298.15 K, x2 = 0.0694 | 1218.7 | 0.725
298.15 K, x2 = 0.1387 | 1252.9 | 1.415
298.15 K, x2 = 0.1889 | 1276.8 | 2.577
298.15 K, x2 = 0.239 | 1300 | 4.295
298.15 K, x2 = 0.3354 | 1342.7 | 9.16
298.15 K, x2 = 0.4317 | 1382.7 | 16.07
298.15 K, x2 = 0.5005 | 1409.6 | 22.26
298.15 K, x2 = 0.5693 | 1435.3 | 29.5
298.15 K, x2 = 0.6532 | 1464.7 | 39.74
298.15 K, x2 = 0.737 | 1492.2 | 51.5
298.15 K, x2 = 0.7927 | 1509.3 | 60.2
298.15 K, x2 = 0.8484 | 1525.6 | 69.6
298.15 K, x2 = 0.9242 | 1546.4 | 83.5
303.15 K, x2 = 0 | 1162.3 | 0.428
303.15 K, x2 = 0.0694 | 1198.4 | 0.555
303.15 K, x2 = 0.1387 | 1233.4 | –
303.15 K, x2 = 0.1889 | 1257.7 | 1.493
303.15 K, x2 = 0.239 | 1281.1 | 2.654
303.15 K, x2 = 0.5005 | 1393.8 | 16.05
303.15 K, x2 = 0.5693 | 1420.5 | 21.63
303.15 K, x2 = 0.6532 | 1451.2 | 29.58
303.15 K, x2 = 0.737 | 1479.5 | 38.8
303.15 K, x2 = 0.7927 | 1496.9 | 45.62
303.15 K, x2 = 0.8484 | 1514 | 53
303.15 K, x2 = 0.9242 | 1534.4 | 63.9
308.15 K, x2 = 0 | 1139.1 | 0.392
308.15 K, x2 = 0.0694 | 1176.1 | 0.448
308.15 K, x2 = 0.1387 | 1211.5 | –
308.15 K, x2 = 0.1889 | 1236.2 | –
308.15 K, x2 = 0.239 | 1260.5 | –
308.15 K, x2 = 0.3354 | 1305.3 | 3.796
308.15 K, x2 = 0.4317 | 1347.7 | 7.6
308.15 K, x2 = 0.5005 | 1376.1 | 11.15
308.15 K, x2 = 0.5693 | 1404.1 | 15.41
308.15 K, x2 = 0.6532 | 1435.8 | 21.55
308.15 K, x2 = 0.737 | 1465.1 | 28.73
308.15 K, x2 = 0.7927 | 1483.3 | 34.08
308.15 K, x2 = 0.9242 | 1521 | 48.5
313.15 K, x2 = 0.0694 | 1155.4 | 0.378
313.15 K, x2 = 0.1889 | 1216.6 | –
313.15 K, x2 = 0.3354 | 1286.1 | 2.165
313.15 K, x2 = 0.4317 | 1329.6 | 5.02
313.15 K, x2 = 0.5005 | 1359.4 | 7.79
313.15 K, x2 = 0.5693 | 1388.1 | 11.15
313.15 K, x2 = 0.6532 | 1420.6 | 16.05
313.15 K, x2 = 0.737 | 1452.4 | 21.85
313.15 K, x2 = 0.7927 | 1471.1 | 26.2
313.15 K, x2 = 0.8484 | 1488.1 | 30.93
313.15 K, x2 = 0.9242 | 1510.3 | 38.01
318.15 K, x2 = 0.0694 | 1134.5 | 0.355
318.15 K, x2 = 0.1387 | 1170.8 | –
318.15 K, x2 = 0.1889 | 1195.7 | –
318.15 K, x2 = 0.239 | 1220 | –
318.15 K, x2 = 0.4317 | 1310.6 | 3.27
318.15 K, x2 = 0.5005 | 1341.6 | 5.53
318.15 K, x2 = 0.5693 | 1371.6 | 8.34
318.15 K, x2 = 0.737 | 1437.5 | 17.48
318.15 K, x2 = 0.7927 | 1457.2 | 21.23
318.15 K, x2 = 0.8484 | 1475.3 | 25.34
